The values below come from ChEMBL document CHEMBL3813678, “Synthesis and anticancer activity of novel 4-morpholino-7,8-dihydro-5H-thiopyrano[4,3-d]pyrimidine derivatives bearing chromone moiety” (Bioorg Med Chem, 2016).

One assay deals with A549. The experiment in a line: Cytotoxicity against human A549 cells after 72 hrs by MTT assay. The format is functional, cell-based.
Assay [1] in a line: Cytotoxicity against human PC3 cells after 72 hrs by MTT assay. The format is functional, cell-based, PC-3. In general terms: Formazan colour is commonly taken as a measure of viable cells.
The test system of a further assay is HeLa. Briefly: Cytotoxicity against human HeLa cells after 72 hrs by MTT assay. The format is functional, cell-based.
In the next assay the test system is HepG2. Briefly: Cytotoxicity against human HepG2 cells after 72 hrs by MTT assay. The format is functional, cell-based.
The next assay relates to MCF7. Briefly: Cytotoxicity against human MCF7 cells after 72 hrs by MTT assay. It counts as functional, cell-based.
Assay [2] deals with T1, Phosphatidylinositol 4,5-bisphosphate 3-kinase catalytic subunit alpha isoform (Homo sapiens, UniProt P42336). Briefly: Inhibition of PI3Kalpha (unknown origin) at 10 uM using PI substrate incubated for 60 mins by kinase-glo luminescence assay.
For assay [3], the target named is T2, Serine/threonine-protein kinase mTOR (Homo sapiens, UniProt P42345). Briefly: Inhibition of mTOR (unknown origin) at 10 uM using ULight4E-BP1 peptide as substrate incubated for 1 hr by TR-FRET assay. In general terms: TR-FRET usually uses a lanthanide donor and a delayed reading to cut background.
Assay [4] has as its target T2, Serine/threonine-protein kinase mTOR. Briefly: Inhibition of mTOR (unknown origin) using ULight4E-BP1 peptide as substrate incubated for 1 hr by TR-FRET assay.
The target in assay [5] is T1, Phosphatidylinositol 4,5-bisphosphate 3-kinase catalytic subunit alpha isoform. The experiment in a line: Inhibition of PI3Kalpha (unknown origin) using PI substrate incubated for 60 mins by kinase-glo luminescence assay. (In general: Kinase-Glo reads ATP consumption through a luciferase reaction.)
The mark [6] stands for this setting: Homo sapiens, A549, 72 h, read-out: IC50.
The mark [7] stands for this setting: Homo sapiens, PC-3, 72 h, read-out: IC50.
Setting [8] is: Homo sapiens, HeLa, 72 h, read-out: IC50.
The mark [9] stands for this setting: Homo sapiens, HepG2, 72 h, read-out: IC50.
Where [10] appears, read: Homo sapiens, MCF7, 72 h, read-out: IC50.

T1 sequence (P42336 whole entry, canonical isoform): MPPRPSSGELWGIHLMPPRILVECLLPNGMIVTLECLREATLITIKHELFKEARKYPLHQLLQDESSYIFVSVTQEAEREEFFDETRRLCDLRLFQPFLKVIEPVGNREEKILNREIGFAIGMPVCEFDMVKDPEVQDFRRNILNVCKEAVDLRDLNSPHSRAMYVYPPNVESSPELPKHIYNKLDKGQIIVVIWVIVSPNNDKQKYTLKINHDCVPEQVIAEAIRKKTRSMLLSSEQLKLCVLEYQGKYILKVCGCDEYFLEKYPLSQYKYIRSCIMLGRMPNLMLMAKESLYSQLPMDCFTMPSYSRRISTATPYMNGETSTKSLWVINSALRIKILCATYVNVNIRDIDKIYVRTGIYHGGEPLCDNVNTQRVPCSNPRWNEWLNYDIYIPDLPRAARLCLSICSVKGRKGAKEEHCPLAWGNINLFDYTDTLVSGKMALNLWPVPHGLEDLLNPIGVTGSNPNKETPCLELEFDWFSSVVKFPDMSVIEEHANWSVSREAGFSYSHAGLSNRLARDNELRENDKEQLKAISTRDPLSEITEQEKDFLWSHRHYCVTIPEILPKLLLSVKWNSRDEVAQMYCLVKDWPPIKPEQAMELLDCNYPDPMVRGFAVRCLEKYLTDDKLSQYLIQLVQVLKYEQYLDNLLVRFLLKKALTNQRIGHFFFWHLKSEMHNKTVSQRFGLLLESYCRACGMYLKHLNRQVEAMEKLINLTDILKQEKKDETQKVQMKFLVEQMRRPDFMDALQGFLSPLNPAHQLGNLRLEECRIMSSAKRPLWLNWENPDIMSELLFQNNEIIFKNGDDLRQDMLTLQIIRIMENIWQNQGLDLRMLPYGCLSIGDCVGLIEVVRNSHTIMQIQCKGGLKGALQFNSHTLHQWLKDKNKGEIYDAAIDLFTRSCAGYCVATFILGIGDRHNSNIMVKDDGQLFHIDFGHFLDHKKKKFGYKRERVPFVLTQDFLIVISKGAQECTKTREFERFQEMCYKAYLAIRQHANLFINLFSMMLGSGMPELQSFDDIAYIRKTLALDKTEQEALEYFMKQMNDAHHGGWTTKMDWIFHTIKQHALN

In the case of `O=c1c(/C=N/Nc2nc3c(c(N4CCOCC4)n2)CS(=O)(=O)CC3)coc2ccc(Cl)cc12`, the IC50 in the assay on A549 (setting [6]) is 17.9 µM; in [1] (setting [7]), 46.9 µM; in the assay on HeLa (setting [8]) it was 30.4 µM; in the assay with HepG2 (setting [9]) it was 38.1 µM; with MCF7 (setting [10]), 23.5 µM.
`CC(C)c1ccc2occ(/C=N/Nc3nc4c(c(N5CCOCC5)n3)CS(=O)(=O)CC4)c(=O)c2c1`: the IC50 in the assay on A549 (setting [6]) was 25.7 µM; in assay [1] (setting [7]) it was 34.9 µM; with HeLa (setting [8]), 26.5 µM; in the assay with HepG2 (setting [9]), 27.9 µM; in the assay with MCF7 (setting [10]), 27.3 µM.
With `O=c1c(/C=N/Nc2nc3c(c(N4CCOCC4)n2)CSCC3)coc2ccc([N+](=O)[O-])cc12`, the concentration for half-maximal inhibition (IC50) in the assay on A549 (setting [6]) was found to be 19.8 µM; in [1] (setting [7]) it was 34.9 µM; in the assay with HeLa (setting [8]), 11.5 µM; in the assay on HepG2 (setting [9]) it was 12.7 µM; with MCF7 (setting [10]) it was 21.4 µM. Further, the inhibition in assay [2] was 16.7%; in [3] it was 66.4%.
On to `Cc1ccc2occ(/C=N/Nc3nc4c(c(N5CCOCC5)n3)CSCC4)c(=O)c2c1`, for which the IC50 in the assay with A549 (setting [6]) is 42.5 µM; in [1] (setting [7]) it was > 100 µM; with HeLa (setting [8]), 15.9 µM; with HepG2 (hepg2), “Not Active”; with MCF7 (setting [10]), 36.6 µM.
`O=c1c(/C=N/Nc2nc3c(c(N4CCOCC4)n2)CSCC3)coc2ccc(F)cc12`: the IC50 in the assay with A549 (setting [6]) was 6.9 µM; in assay [4] it was “Not Active”; in assay [1] (setting [7]), 83.9 µM; in the assay on HeLa (setting [8]) it was 0.38 µM; in the assay with HepG2 (setting [9]), 0.28 µM; in the assay with MCF7 (setting [10]), 11.3 µM.
Take `O=C(O)c1ccc2occ(/C=N/Nc3nc4c(c(N5CCOCC5)n3)CS(=O)(=O)CC4)c(=O)c2c1`: the IC50 entry (in the assay on A549 (a549); in assay [1] (pc-3); in the assay with MCF7 (mcf7)) was “Not Active” each time.
As to `O=c1c(/C=N/Nc2nc3c(c(N4CCOCC4)n2)CS(=O)(=O)CC3)coc2ccc(F)cc12`, the concentration for half-maximal inhibition (IC50) result (in the assay with A549 (a549); in assay [1] (pc-3); in the assay on MCF7 (mcf7)) was “Not Active” throughout.
Take `CC(C)(C)c1ccc2occ(/C=N/Nc3nc4c(c(N5CCOCC5)n3)CS(=O)(=O)CC4)c(=O)c2c1`: the IC50 is 18.4 µM with A549 (setting [6]); 17.9 µM in [1] (setting [7]); 15.3 µM in the assay on HeLa (setting [8]); 14.8 µM in the assay on HepG2 (setting [9]); 17.8 µM with MCF7 (setting [10]). For the same compound, the inhibition came out at 13.8% in assay [2] and 44.7% in [3].
For the compound `O=c1c(/C=N/Nc2nc3c(c(N4CCOCC4)n2)CS(=O)(=O)CC3)coc2ccc(Br)cc12`, the IC50 is 50.5 µM in the assay on A549 (setting [6]); 65.1 µM in assay [1] (setting [7]); “Not Active” with HeLa (hela); “Not Active” in the assay with HepG2 (hepg2); 60.3 µM in the assay with MCF7 (setting [10]).
As to `CCc1ccc2occ(/C=N/Nc3nc4c(c(N5CCOCC5)n3)CSCC4)c(=O)c2c1`, the IC50 in the assay with A549 (setting [6]) was 21.1 µM; in assay [4], “Not Active”; in assay [1] (setting [7]), 23.8 µM; in the assay with HeLa (setting [8]), 10.1 µM; with HepG2 (setting [9]) it was 13.9 µM; in the assay on MCF7 (setting [10]), 11.2 µM.
Regarding `O=c1c(/C=N/Nc2nc3c(c(N4CCOCC4)n2)CS(=O)(=O)CC3)coc2ccc(O)cc12`, the 50% inhibitory concentration (IC50) entry (in the assay with A549 (a549); in assay [1] (pc-3); in the assay on MCF7 (mcf7)) was “Not Active” in each case.
Consider `O=c1c(/C=N/Nc2nc3c(c(N4CCOCC4)n2)CSCC3)coc2ccc(Br)cc12`, for which the IC50 (in the assay on A549 (setting [6]); in assay [1] (setting [7]); with HeLa (setting [8]); in the assay with HepG2 (setting [9]); with MCF7 (setting [10])) was > 100 µM in each case.
For `O=c1c(/C=N/Nc2nc3c(c(N4CCOCC4)n2)CSCC3)coc2ccc(O)cc12`, the 50% inhibitory concentration (IC50) was > 100 µM in the assay on A549 (setting [6]); > 100 µM in [1] (setting [7]); “Not Active” in the assay on HeLa (hela); “Not Active” with HepG2 (hepg2); “Not Active” in the assay with MCF7 (mcf7).
With `O=C(O)c1ccc2occ(/C=N/Nc3nc4c(c(N5CCOCC5)n3)CSCC4)c(=O)c2c1`, the IC50 in assay [5] (read-out: IC50) was 0.92 µM; with A549 (setting [6]), 10.5 µM; in assay [4] (read-out: IC50), 1.1 µM; in [1] (setting [7]) it was 14.3 µM; in the assay on HeLa (setting [8]) it was 10.3 µM; with HepG2 (setting [9]) it was 8.77 µM. Besides, in the assay with MCF7 (setting [10]), the concentration for half-maximal inhibition (IC50) was 11.8 µM.
With `COc1cc(/C=N/Nc2nc3c(c(N4CCOCC4)n2)CSCC3)cc(OC)c1O`, the IC50 result is “Not Active” in assay [5], 7.43 µM in the assay on A549 (setting [6]) and 5.84 µM in the assay with MCF7 (setting [10]).
Regarding `CC(C)(C)c1ccc2occ(/C=N/Nc3nc4c(c(N5CCOCC5)n3)CSCC4)c(=O)c2c1`, the IC50 in the assay on A549 (setting [6]) turned out to be 11.5 µM; in assay [1] (setting [7]), 15.3 µM; in the assay with HeLa (setting [8]) it was 0.17 µM; with HepG2 (setting [9]), 1.84 µM; with MCF7 (setting [10]), 3.85 µM. Further, the inhibition in assay [2] was found to be 24%; in assay [3] it was 36.4%.
Turning to `CS(=O)(=O)N1CCN(Cc2cc3nc(-c4cccc5[nH]ncc45)nc(N4CCOCC4)c3s2)CC1` [PICTILISIB], the results for the half-maximal inhibitory concentration (IC50) (with A549 (setting [6]); in assay [1] (setting [7]); with MCF7 (setting [10])) were 6.99 µM, 0.2 µM and 0.07 µM, respectively.
Take `O=c1c(/C=N/Nc2nc3c(c(N4CCOCC4)n2)CSCC3)coc2ccc(Cl)cc12`: the concentration for half-maximal inhibition (IC50) in the assay on A549 (setting [6]) is > 100 µM; in assay [1] (setting [7]), 32.2 µM; in the assay with HeLa (setting [8]), 13.4 µM; with HepG2 (hepg2), “Not Active”; with MCF7 (mcf7), “Not Active”.
On to `O=c1c(/C=N/Nc2nc3c(c(N4CCOCC4)n2)CS(=O)(=O)CC3)coc2ccc([N+](=O)[O-])cc12`, for which the half-maximal inhibitory concentration (IC50) result (with A549 (a549); in assay [1] (pc-3); in the assay on MCF7 (mcf7)) was “Not Active” in each case.
For `CC(C)c1ccc2occ(/C=N/Nc3nc4c(c(N5CCOCC5)n3)CSCC4)c(=O)c2c1`, the half-inhibitory concentration (IC50) in the assay on A549 (setting [6]) was 9.5 µM; in assay [4], “Not Active”; in assay [1] (setting [7]) it was 17.3 µM; in the assay on HeLa (setting [8]) it was 15.5 µM; in the assay on HepG2 (setting [9]), 9.95 µM; in the assay with MCF7 (setting [10]), 13.1 µM.
For `Cc1ccc2occ(/C=N/Nc3nc4c(c(N5CCOCC5)n3)CS(=O)(=O)CC4)c(=O)c2c1`, the half-maximal inhibitory concentration (IC50) in the assay on A549 (setting [6]) was determined as 20.8 µM; in assay [1] (setting [7]) it was 38 µM; in the assay with HeLa (setting [8]) it was 19.2 µM; in the assay with HepG2 (setting [9]), 23.4 µM; in the assay with MCF7 (setting [10]) it was 22.1 µM.
For `CCc1ccc2occ(/C=N/Nc3nc4c(c(N5CCOCC5)n3)CS(=O)(=O)CC4)c(=O)c2c1`, in that order: 26.4 µM, 30.2 µM, 20.2 µM, 25.9 µM and 28.9 µM.

The IC50 is the point on the concentration scale where inhibition reaches its midpoint. As a reminder, the inhibition is how much of the control response was suppressed. The low end stands for a response near the control, the high end for a response far below the control.
